Results reported in ChEMBL document CHEMBL3507680, “University of Dundee, Gates Library screen for HepG2 cell viability”.

Test: Human HepG2 cell viability assay in 384 well format
Assay type: toxicity, cell-based
Parameters: dose 125 nL, time 70.5 hour; concentration not given beside the values
Settings: HepG2 cells, read-out: Inhibition

Row | SMILES | cytotoxicity at 70.5 h [%]
1 | Cc1cc(C)n(CCCNC(=O)[C@@H](C)NC(=O)OC(C)(C)C)n1 | -14.4
2 | CC(C)Cc1cc(C(=O)NCCc2ccc(S(C)(=O)=O)cc2)[nH]n1 | -7.03
3 | CC(C)(C)c1n[nH]c(C2CN(C(=O)c3csnn3)CCO2)n1 (stereo unspecified) | 22.6
4 | CC(c1nc(C(C)(C)C)no1)N1CCN(CC(=O)N2CCOCC2)CC1 (stereo unspecified) | -16.5
5 | CCOCCCNC(=O)c1ccccc1S(C)(=O)=O | -15.5
6 | CCOC(CC)C(=O)NCCC(=O)N1CCN(c2ccccn2)CC1 (stereo unspecified) | -14.2
7 | COCCOCC(=O)Nc1ccc(Br)cc1F | -11
8 | O=C(NCCc1nnc2n1CCC2)NCC1(c2cccc(F)c2)CC1 | -29.8
9 | Cc1noc(C(C)C)c1C(=O)N1CCOCC1CC(=O)c1ccco1 (stereo unspecified) | -5.66
10 | CCc1cnc(CN(C(C)=O)C2CCN(CCS(C)(=O)=O)C2)o1 (stereo unspecified) | 32.1
11 | CCN(CC)C(=O)c1ccc(-c2ccsc2)nc1C | -6.78
12 | O=C(CN1CCCC1Cn1cncn1)Nc1cccnc1 (stereo unspecified) | -7.61
13 | CCOc1ncccc1NC(=O)c1sccc1C | -7.66
14 | Cc1cc(C(=O)N2CCCC2c2nnc3n2CCCCC3)no1 (stereo unspecified) | -7.37
15 | CNC(=O)COc1ccc(CNCc2ccc(F)cc2F)cc1 | -3.23
16 | CC1CCN(CCNC(=O)c2cncnc2C(C)C)CC1 | -5.55
17 | Cc1ccc(CNC(=O)Nc2cc(C(F)(F)F)c[nH]c2=O)cn1 | -0.26
18 | Cc1csc(CNC(=O)Nc2cc(C(F)(F)F)c[nH]c2=O)n1 | -5.01
19 | CCCN1CCC(NC(=O)c2ccc(F)cc2I)CC1 | -6.74
20 | Cc1nn(C)c(N2CCOCC2)c1CNC(C)c1ccco1 (stereo unspecified) | 10.7
21 | O=C(Nc1cccc(CN2CCOC2=O)c1)N1CCOCC1 | -3.32
22 | Cc1nc(-c2ccsc2)ccc1C(=O)O | -4.19
23 | Cc1cnn(CC(C)NCc2nc(-c3ccco3)no2)c1 (stereo unspecified) | 2.25

Row | SMILES | cytotoxicity at 70.5 h [%]
24 | Cc1nc(C)n(CC2CCCCN2CC(=O)Nc2cccnc2)n1 (stereo unspecified) | -0.493
25 | O=C1CCCCN1Cc1cccc(NC(=O)N2CCSCC2)c1 | -6.83
26 | CC(C)(C(=O)NCC(N)=O)c1ccccc1F | -5.2
27 | COc1ccc(CNCCc2cc(F)cc3c2OCOC3)cc1O | 2.79
28 | Cc1nc(C)n(CC2CN(CC(=O)Nc3nccs3)CCO2)n1 (stereo unspecified) | -3.11
29 | CCOc1ncccc1NC(=O)c1cc(C)c(C)s1 | -7.38
30 | COC(=O)CS(=O)(=O)CCC(=O)N1CCCC1c1ccsc1 (stereo unspecified) | -2.16
31 | c1ccc(C2CCCN2Cc2nnnn2C2CC2)cc1 (stereo unspecified) | -2.74
32 | CCc1ncncc1C(=O)NCCN1CCC(C)CC1 | -4.63
33 | Cc1noc(C)c1CN1CCC2(CC1)NC(=O)CC2c1ccncc1 (stereo unspecified) | -9.41
34 | Cn1cc(-c2nnn3c2COC(CNCC2CCOCC2)C3)cn1 (stereo unspecified) | -7.48
35 | NC(=O)COc1ccc(CNCc2ccc(F)c(F)c2)cc1 | 0.155
36 | Fc1cccnc1N1CCOCC2(CCCN(c3nncs3)C2)C1 (stereo unspecified) | -9.83
37 | COCC1CN(Cc2ccoc2)Cc2nnn(C)c21 (stereo unspecified) | -13.7
38 | O=C(NC[C@]12COC[C@H]1CN(Cc1cccs1)C2)c1ccsc1 | -9.66
39 | CN(C)C[C@]12COC[C@H]1CN(C(=O)CCc1ccccc1)C2 | -11.8
40 | Cc1ccc(C(=O)N2CCC3(CC2)CCN(Cc2ccccn2)C3=O)o1 | 26.4
41 | O=C(Nc1cccnc1)[C@H]1C[C@H]2OCC[C@H]2N(Cc2ccc(F)cc2)C1 | -10
42 | Cc1cccc(CN2C[C@@H]3COC[C@]3(CNC(=O)c3ccccc3)C2)n1 | -12.2
43 | Cc1cccc(CN2C[C@@H]3COC[C@]3(CNC(=O)c3cccn3C)C2)n1 | 19.6
44 | Cn1cc(CN2CCC3(CC2)NC(=O)CC3c2ccncc2)cn1 (stereo unspecified) | 12.2
45 | Cc1cncc(C(=O)N2C[C@H]3CCC[C@@]3(COc3ccccn3)C2)c1 | 7.93
46 | COc1cc(N2CCO[C@H]3[C@@H](Oc4cccnc4)CC[C@@H]32)ncn1 | 26.1
